# Measurements reported in PubChem BioAssay (NCI).
#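 Compound exposure: 48 hours, 5 concentrations, 96-well plates. At the TGI there is no net growth.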
# What was measured:
# Test in all cases: NCI tumour cell line growth inhibition, 48 h
# SNB-78 CNS = tested on: SNB-78 CNS
# P388 leukemia = tested on: P388 leukemia
# SN12K1 renal = tested on: SN12K1 renal
# PC-3 prostate = tested on: PC-3 prostate
# T-47D breast = tested on: T-47D breast
# M14 melanoma = tested on: M14 melanoma
# MDA-N = tested on: MDA-N
# BT-549 breast = tested on: BT-549 breast
# HS 578T breast = tested on: HS 578T breast
# LXFL 529 NSCLC = tested on: LXFL 529 NSCLC
# RXF-631 renal = tested on: RXF-631 renal
Compound,TGI (SNB-78 CNS) [µM],TGI (P388 leukemia) [µM],TGI (SN12K1 renal) [µM],TGI (PC-3 prostate) [µM],TGI (M14 melanoma) [µM],also measured
CN(C)C(=O)OCOC(=O)N(C)C,> 100,> 100,> 100,,,
CCOC(=O)c1csc(NC(=O)C(C)N2CCCCC2)n1 (stereo unspecified),,,,> 100,> 100,TGI (T-47D breast): > 100 µM; TGI (MDA-N): > 100 µM
OCC1OC(n2cnc3c2NC=NC[C@H]3O)C(O)C1O (stereo partly specified),> 450,> 450,> 450,,,
COC(=O)C1OC(Oc2cc(O)c3c(=O)cc(-c4ccc(O)cc4)oc3c2)C(O)C(O)C1O (stereo unspecified),> 100,> 100,> 100,,,
O=C1NC(=O)C(CCO)(c2ccccc2)C(=O)N1,> 100,> 100,> 100,,,
CCOC(=O)CC1CCN(C(=O)c2ccccc2)C2Cc3c([nH]c4ccccc34)C12C[N+](=O)[O-] (stereo unspecified),,,,> 100,> 100,TGI (T-47D breast): > 100 µM; TGI (MDA-N): > 100 µM; TGI (BT-549 breast): > 100 µM; TGI (HS 578T breast): > 100 µM
COC(=O)c1ccc(/C=C2\N=C(C)OC2=O)cc1,,,,,> 100,TGI (LXFL 529 NSCLC): > 100 µM; TGI (RXF-631 renal): > 100 µM
O=c1c(-c2ccccc2)c(SCCCN2CCN(c3cccc(Cl)c3)CC2)n(-c2ccccc2)c(=S)n1-c1ccccc1,,,,> 100,,TGI (BT-549 breast): > 100 µM; TGI (HS 578T breast): > 100 µM
CCCCN1C=CN2c3nc4cc(C)c(C)cc4n3C(C(=O)OC)=C(C(=O)OC)C12 (stereo unspecified),> 100,,,,> 100,TGI (LXFL 529 NSCLC): > 100 µM
